According to patent US20260007681A1, “INDOLE DERIVATIVES AS ESTROGEN RECEPTOR DEGRADERS” (REGENTS OF THE UNIVERSITY OF MICHIGAN, priority 2022, published 2026):

Target: ER (Homo sapiens (Human), UniProt P03372)
Test: Western blot analysis (Compounds B1-B278)
Format: cell-based
Details: ER degradation by traditional Western blot; DC50 classes
In short: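 Relative target-protein levels come from densitometry of immunoblots, normalized to GAPDH. Lysates from treated cells were prepared in RIPA buffer (pH 7.6) containing protease inhibitors, and equal protein amounts, checked by BCA, were separated on 10% gels and blotted onto PVDF.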

Sequence of ER (P03372 whole entry): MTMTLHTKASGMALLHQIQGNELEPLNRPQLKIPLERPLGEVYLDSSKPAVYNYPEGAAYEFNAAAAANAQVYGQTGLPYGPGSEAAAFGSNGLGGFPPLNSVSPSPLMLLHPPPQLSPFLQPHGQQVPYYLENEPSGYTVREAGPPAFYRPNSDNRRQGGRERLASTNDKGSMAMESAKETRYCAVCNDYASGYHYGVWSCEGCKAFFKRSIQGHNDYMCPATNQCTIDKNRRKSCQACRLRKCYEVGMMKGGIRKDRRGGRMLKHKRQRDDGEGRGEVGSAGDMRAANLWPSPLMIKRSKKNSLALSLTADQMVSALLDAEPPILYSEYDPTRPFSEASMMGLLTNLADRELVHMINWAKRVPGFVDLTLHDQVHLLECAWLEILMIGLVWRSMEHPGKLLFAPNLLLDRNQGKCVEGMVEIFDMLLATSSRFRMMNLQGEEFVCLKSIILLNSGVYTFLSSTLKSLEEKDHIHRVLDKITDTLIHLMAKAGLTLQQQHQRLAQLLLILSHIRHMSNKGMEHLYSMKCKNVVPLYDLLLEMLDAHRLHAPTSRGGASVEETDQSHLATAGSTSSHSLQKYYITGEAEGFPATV

## C[C@@H]1Cc2c([nH]c3ccccc23)[C@@H](c2c(F)cc(N3CCC4(CC3)CN(CC3Cc5cc6c(cc5C3)C(=O)N(C3CCC(=O)NC3=O)C6=O)C4)cc2F)N1CC(F)F (stereo partly drawn) [Compound B205, 6-((7-(4-((1R,3R)-2-(2,2-difluoroethyl)-3-methyl-2,3,4,9-tetrahydro-1H-pyrido[3,4-b]indol-1-yl)-3,5-difluorophenyl)-2,7-diazaspiro[3.5]nonan-2-yl)methyl)-2-(2,6-dioxopiperidin-3-yl)-6,7-dihydrocyclopenta[f]isoindole-1,3(2H,5H)-dione]
  Traditional Western Degradation Potency: C (“C”: >100 nM)

## C[C@@H]1Cc2c([nH]c3ccccc23)[C@@H](c2c(F)cc(N3CCC(C(=O)N4CCC(CN5Cc6cc7c(cc6C5)C(=O)N(C5CCC(=O)NC5=O)C7=O)CC4)CC3)cc2F)N1CC(F)F (stereo partly drawn) [Compound B206, 6-((1-(1-(4-((1R,3R)-2-(2,2-difluoroethyl)-3-methyl-2,3,4,9-tetrahydro-1H-pyrido[3,4-b]indol-1-yl)-3,5-difluorophenyl)piperidine-4-carbonyl)piperidin-4-yl)methyl)-2-(2,6-dioxopiperidin-3-yl)-6,7-dihydropyrrolo[3,4-f]isoindole-1,3(2H,5H)-dione]
  Traditional Western Degradation Potency: C (“C”: >100 nM)

## C[C@@H]1Cc2c([nH]c3ccccc23)[C@@H](c2c(F)cc(N3CCC(C(=O)N4CC(CN5Cc6cc7c(cc6C5)C(=O)N(C5CCC(=O)NC5=O)C7=O)C4)CC3)cc2F)N1CC(F)F (stereo partly drawn) [Compound B207, 6-((1-(1-(4-((1R,3R)-2-(2,2-difluoroethyl)-3-methyl-2,3,4,9-tetrahydro-1H-pyrido[3,4-b]indol-1-yl)-3,5-difluorophenyl)piperidine-4-carbonyl)azetidin-3-yl)methyl)-2-(2,6-dioxopiperidin-3-yl)-6,7-dihydropyrrolo[3,4-f]isoindole-1,3(2H,5H)-dione]
  Traditional Western Degradation Potency: B (“B”: 10-100 nM)

## C[C@@H]1Cc2c([nH]c3ccccc23)[C@@H](c2c(F)cc(N3CCC(C(=O)N4CC(N5Cc6cc7c(cc6C5)C(=O)N(C5CCC(=O)NC5=O)C7=O)C4)CC3)cc2F)N1CC(F)F (stereo partly drawn) [Compound B208, 6-(1-(1-(4-((1R,3R)-2-(2,2-difluoroethyl)-3-methyl-2,3,4,9-tetrahydro-1H-pyrido[3,4-b]indol-1-yl)-3,5-difluorophenyl)piperidine-4-carbonyl)azetidin-3-yl)-2-(2,6-dioxopiperidin-3-yl)-6,7-dihydropyrrolo[3,4-f]isoindole-1,3(2H,5H)-dione]
  Traditional Western Degradation Potency: C (“C”: >100 nM)

## C[C@@H]1Cc2c([nH]c3ccccc23)[C@@H](c2c(F)cc(N3CC(C(=O)N4CCC(N5Cc6cc7c(cc6C5)C(=O)N(C5CCC(=O)NC5=O)C7=O)CC4)C3)cc2F)N1CC(F)F (stereo partly drawn) [Compound B209, 6-(1-(1-(4-((1R,3R)-2-(2,2-difluoroethyl)-3-methyl-2,3,4,9-tetrahydro-1H-pyrido[3,4-b]indol-1-yl)-3,5-difluorophenyl)azetidine-3-carbonyl)piperidin-4-yl)-2-(2,6-dioxopiperidin-3-yl)-6,7-dihydropyrrolo[3,4-f]isoindole-1,3(2H,5H)-dione]
  Traditional Western Degradation Potency: C (“C”: >100 nM)

## C[C@@H]1Cc2c([nH]c3ccccc23)[C@@H](c2c(F)cc(N3CC(C(=O)N4CCC(CN5Cc6cc7c(cc6C5)C(=O)N(C5CCC(=O)NC5=O)C7=O)CC4)C3)cc2F)N1CC(F)F (stereo partly drawn) [Compound B210, 6-((1-(1-(4-((1R,3R)-2-(2,2-difluoroethyl)-3-methyl-2,3,4,9-tetrahydro-1H-pyrido[3,4-b]indol-1-yl)-3,5-difluorophenyl)azetidine-3-carbonyl)piperidin-4-yl)methyl)-2-(2,6-dioxopiperidin-3-yl)-6,7-dihydropyrrolo[3,4-f]isoindole-1,3(2H,5H)-dione]
  Traditional Western Degradation Potency: C (“C”: >100 nM)

## C[C@@H]1Cc2c([nH]c3ccccc23)[C@@H](c2c(F)cc(N3CCC(CN4CCC(C(=O)N5Cc6cc7c(cc6C5)C(=O)N(C5CCC(=O)NC5=O)C7=O)CC4)CC3)cc2F)N1CC(F)F (stereo partly drawn) [Compound B211, 6-(1-((1-(4-((1R,3R)-2-(2,2-difluoroethyl)-3-methyl-2,3,4,9-tetrahydro-1H-pyrido[3,4-b]indol-1-yl)-3,5-difluorophenyl)piperidin-4-yl)methyl)piperidine-4-carbonyl)-2-(2,6-dioxopiperidin-3-yl)-6,7-dihydropyrrolo[3,4-f]isoindole-1,3(2H,5H)-dione]
  Traditional Western Degradation Potency: C (“C”: >100 nM)

## C[C@@H]1Cc2c([nH]c3ccccc23)[C@@H](c2c(F)cc(N3CCC(CN4CC(C(=O)N5Cc6cc7c(cc6C5)C(=O)N(C5CCC(=O)NC5=O)C7=O)C4)CC3)cc2F)N1CC(F)F (stereo partly drawn) [Compound B212, 6-(1-((1-(4-((1R,3R)-2-(2,2-difluoroethyl)-3-methyl-2,3,4,9-tetrahydro-1H-pyrido[3,4-b]indol-1-yl)-3,5-difluorophenyl)piperidin-4-yl)methyl)azetidine-3-carbonyl)-2-(2,6-dioxopiperidin-3-yl)-6,7-dihydropyrrolo[3,4-f]isoindole-1,3(2H,5H)-dione]
  Traditional Western Degradation Potency: C (“C”: >100 nM)

## C[C@@H]1Cc2c([nH]c3ccccc23)[C@@H](c2c(F)cc(N3CCC(CN4CCC(N5Cc6cc7c(cc6C5)C(=O)N(C5CCC(=O)NC5=O)C7=O)CC4)CC3)cc2F)N1CC(F)F (stereo partly drawn) [Compound B213, 6-(1-((1-(4-((1R,3R)-2-(2,2-difluoroethyl)-3-methyl-2,3,4,9-tetrahydro-1H-pyrido[3,4-b]indol-1-yl)-3,5-difluorophenyl)piperidin-4-yl)methyl)piperidin-4-yl)-2-(2,6-dioxopiperidin-3-yl)-6,7-dihydropyrrolo[3,4-f]isoindole-1,3(2H,5H)-dione]
  Traditional Western Degradation Potency: A (“A”: <10 nM)

## C[C@@H]1Cc2c([nH]c3ccccc23)[C@@H](c2c(F)cc(N3CCC(C(=O)N4CCC(N5Cc6cc7c(cc6C5)C(=O)N(C5CCC(=O)NC5=O)C7=O)CC4)CC3)cc2F)N1CC(C)(F)F (stereo partly drawn) [Compound B214, 6-(1-(1-(4-((1R,3R)-2-(2,2-difluoropropyl)-3-methyl-2,3,4,9-tetrahydro-1H-pyrido[3,4-b]indol-1-yl)-3,5-difluorophenyl)piperidine-4-carbonyl)piperidin-4-yl)-2-(2,6-dioxopiperidin-3-yl)-6,7-dihydropyrrolo[3,4-f]isoindole-1,3(2H,5H)-dione]
  Traditional Western Degradation Potency: A (“A”: <10 nM)

## C[C@@H]1Cc2c([nH]c3ccccc23)[C@@H](c2c(F)cc(N3CCC4(CCN(C(=O)CN5Cc6cc7c(cc6C5)C(=O)N(C5CCC(=O)NC5=O)C7=O)CC4)CC3)cc2F)N1CC(C)(F)F (stereo partly drawn) [Compound B215, 6-(2-(9-(4-((1R,3R)-2-(2,2-difluoropropyl)-3-methyl-2,3,4,9-tetrahydro-1H-pyrido[3,4-b]indol-1-yl)-3,5-difluorophenyl)-3,9-diazaspiro[5.5]undecan-3-yl)-2-oxoethyl)-2-(2,6-dioxopiperidin-3-yl)-6,7-dihydropyrrolo[3,4-f]isoindole-1,3(2H,5H)-dione]
  Traditional Western Degradation Potency: A (“A”: <10 nM)

## C[C@@H]1Cc2c([nH]c3ccccc23)[C@@H](c2cnc(N3CCC4(CCN(C(=O)CN5Cc6cc7c(cc6C5)C(=O)N(C5CCC(=O)NC5=O)C7=O)CC4)CC3)nc2)N1CC(F)(F)F (stereo partly drawn) [Compound B216, 2-(2,6-dioxopiperidin-3-yl)-6-(2-(9-(5-((1R,3R)-3-methyl-2-(2,2,2-trifluoroethyl)-2,3,4,9-tetrahydro-1H-pyrido[3,4-b]indol-1-yl)pyrimidin-2-yl)-3,9-diazaspiro[5.5]undecan-3-yl)-2-oxoethyl)-6,7-dihydropyrrolo[3,4-f]isoindole-1,3(2H,5H)-dione]
  Traditional Western Degradation Potency: A (“A”: <10 nM)

## C[C@@H]1Cc2c([nH]c3ccccc23)[C@@H](c2cnc(N3CCC4(CC3)CN(C(=O)CN3Cc5cc6c(cc5C3)C(=O)N(C3CCC(=O)NC3=O)C6=O)C4)nc2)N1CC(F)(F)F (stereo partly drawn) [Compound B217, 2-(2,6-dioxopiperidin-3-yl)-6-(2-(7-(5-((1R,3R)-3-methyl-2-(2,2,2-trifluoroethyl)-2,3,4,9-tetrahydro-1H-pyrido[3,4-b]indol-1-yl)pyrimidin-2-yl)-2,7-diazaspiro[3.5]nonan-2-yl)-2-oxoethyl)-6,7-dihydropyrrolo[3,4-f]isoindole-1,3(2H,5H)-dione]
  Traditional Western Degradation Potency: A (“A”: <10 nM)

## C[C@@H]1Cc2c([nH]c3ccccc23)[C@@H](c2cnc(N3CCC(CN4CCC(N5Cc6cc7c(cc6C5)C(=O)N(C5CCC(=O)NC5=O)C7=O)CC4)CC3)nc2)N1CC(F)(F)F (stereo partly drawn) [Compound B218, 2-(2,6-dioxopiperidin-3-yl)-6-(1-((1-(5-((1R,3R)-3-methyl-2-(2,2,2-trifluoroethyl)-2,3,4,9-tetrahydro-1H-pyrido[3,4-b]indol-1-yl)pyrimidin-2-yl)piperidin-4-yl)methyl)piperidin-4-yl)-6,7-dihydropyrrolo[3,4-f]isoindole-1,3(2H,5H)-dione]
  Traditional Western Degradation Potency: B (“B”: 10-100 nM)

## C[C@@H]1Cc2c([nH]c3ccccc23)[C@@H](c2cnc(N3CCC(C(=O)N4CCC(N5Cc6cc7c(cc6C5)C(=O)N(C5CCC(=O)NC5=O)C7=O)CC4)CC3)nc2)N1CC(F)(F)F (stereo partly drawn) [Compound B219, 2-(2,6-dioxopiperidin-3-yl)-6-(1-(1-(5-((1R,3R)-3-methyl-2-(2,2,2-trifluoroethyl)-2,3,4,9-tetrahydro-1H-pyrido[3,4-b]indol-1-yl)pyrimidin-2-yl)piperidine-4-carbonyl)piperidin-4-yl)-6,7-dihydropyrrolo[3,4-f]isoindole-1,3(2H,5H)-dione]
  Traditional Western Degradation Potency: A (“A”: <10 nM)

## C[C@@H]1Cc2c([nH]c3ccccc23)[C@@H](c2cnc(N3CCC4(CCN(C(=O)CN5Cc6cc7c(cc6C5)C(=O)N(C5CCC(=O)NC5=O)C7=O)CC4)CC3)nc2)N1CC(F)F (stereo partly drawn) [Compound B220, 6-(2-(9-(5-((1R,3R)-2-(2,2-difluoroethyl)-3-methyl-2,3,4,9-tetrahydro-1H-pyrido[3,4-b]indol-1-yl)pyrimidin-2-yl)-3,9-diazaspiro[5.5]undecan-3-yl)-2-oxoethyl)-2-(2,6-dioxopiperidin-3-yl)-6,7-dihydropyrrolo[3,4-f]isoindole-1,3(2H,5H)-dione]
  Traditional Western Degradation Potency: A (“A”: <10 nM)
